Experimental data taken from patent US6355799B1, “Substituted benzene compounds, process for their preparation, and herbicidal and defoliant compositions containing them” (ISK Americas Incorporated, priority 1997, dated 2002).

Columns and labels:
Type in all cases: in vivo
[1] = tested on: redroot pigweed (Amaranthus retroflexus, AMARE); experiment: Pre-emerge test, greenhouse herbicide activity screening; conditions: rating scale 0-100, 14 days after application
Summary of the method: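 Plants grown in 10 cm pots of sandy loam mix received acetone-dissolved compounds through a moving flat-fan nozzle. Doses ranged from 15 to 1000 g ai/ha. Pre-emerge pots were seeded one day earlier, post-emerge pots 8–21 days earlier. Fourteen days on, each pot was graded 0–100 for damage.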

[2] = tested on: sicklepod (Cassia obtusifolia, CASOB); experiment: as above; conditions: rating scale 0-100, 14 days after application
Summary of the method: (§1)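 Compounds in acetone were track-sprayed at 15–1000 g ai/ha: pre-emergence onto soil sown the previous day, then top-watered to incorporate and later bottom-watered; post-emergence onto 2–3 leaf plants with 0.25% v/v surfactant, bottom-watered only. Ratings on a 0–100 phytotoxicity scale were taken at day 14.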

[3] = tested on: velvetleaf (Abutilon theophrasti, ABUTH); experiment: as above; conditions: rating scale 0-100, 14 days after application
Summary of the method: as §1

[4] = tested on: lambsquarters (Chenopodium album, CHEAL); experiment: as above; conditions: rating scale 0-100, 14 days after application
Summary of the method: as §1

[5] = tested on: green foxtail (Setaria viridis, SETVI); experiment: as above; conditions: rating scale 0-100, 14 days after application
Summary of the method: as §1

[6] = tested on: barnyardgrass (Echinochloa crus-galli, ECHCG); experiment: as above; conditions: rating scale 0-100, 14 days after application
Summary of the method: as §1

[7] = tested on: ivyleaf morningglory (Ipomoea hederacea, IPOHE); experiment: as above; conditions: rating scale 0-100, 14 days after application
Summary of the method: as §1

[8] = tested on: johnsongrass (Sorghum halepense, SORHA); experiment: as above; conditions: rating scale 0-100, 14 days after application
Summary of the method: as §1

[9] = tested on: large crabgrass (Digitaria sanguinalis, DIGSA); experiment: as above; conditions: rating scale 0-100, 14 days after application
Summary of the method: as §1

[10] = tested on: sicklepod (Cassia obtusifolia, CASOB); experiment: Post-emerge test, greenhouse herbicide activity screening; conditions: rating scale 0-100 (0 no damage, 100 complete death), 14 days after application
Summary of the method: (§2)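 Compounds in acetone were track-sprayed at 187 l/ha, 15–1000 g ai/ha, onto sandy loam pots. Pre-emerge seeds were sown one day before spraying, with surface watering afterwards. Post-emerge plants were at the 2–3 leaf stage and sprayed with 0.25% v/v non-ionic surfactant. Injury was rated 0–100 at 14 days.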

[11] = tested on: velvetleaf (Abutilon theophrasti, ABUTH); experiment: as above; conditions: rating scale 0-100 (0 no damage, 100 complete death), 14 days after application
Summary of the method: as §2

[12] = tested on: lambsquarters (Chenopodium album, CHEAL); experiment: as above; conditions: rating scale 0-100 (0 no damage, 100 complete death), 14 days after application
Summary of the method: as §2

[13] = tested on: green foxtail (Setaria viridis, SETVI); experiment: as above; conditions: rating scale 0-100 (0 no damage, 100 complete death), 14 days after application
Summary of the method: as §2

[14] = tested on: barnyardgrass (Echinochloa crus-galli, ECHCG); experiment: as above; conditions: rating scale 0-100 (0 no damage, 100 complete death), 14 days after application
Summary of the method: as §2

[15] = tested on: ivyleaf morningglory (Ipomoea hederacea, IPOHE); experiment: as above; conditions: rating scale 0-100 (0 no damage, 100 complete death), 14 days after application
Summary of the method: as §2

[16] = tested on: redroot pigweed (Amaranthus retroflexus, AMARE); experiment: as above; conditions: rating scale 0-100 (0 no damage, 100 complete death), 14 days after application
Summary of the method: as §2

[17] = tested on: johnsongrass (Sorghum halepense, SORHA); experiment: as above; conditions: rating scale 0-100 (0 no damage, 100 complete death), 14 days after application
Summary of the method: as §2

[18] = tested on: common ragweed (Ambrosia artemisizfolia L., AMBEL); experiment: as above; conditions: rating scale 0-100 (0 no damage, 100 complete death), 14 days after application
Summary of the method: as §2

[19] = tested on: large crabgrass (Digitaria sanguinalis, DIGSA); experiment: as above; conditions: rating scale 0-100 (0 no damage, 100 complete death), 14 days after application
Summary of the method: as §2

[20] = tested on: upland rice (Oryza sp., var. Tebonnet, RICE); experiment: Post-emerge test, crop safety; conditions: rating scale 0-100 (0 no damage, 100 complete death), 14 days after application
Summary of the method: (§3)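 Rating: 0–100 visual injury, 14 DAA. Application: acetone, 187 l/ha, 15–1000 g ai/ha, flat-fan track sprayer with nozzle 40–45 cm above soil or canopy. Post-emerge runs used 0.25% v/v surfactant on 2–3 leaf plants.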

[21] = tested on: field corn (Zea mays L., var. Dekalb 535, CORN); experiment: Post-emerge test, crop safety; conditions: rating scale 0-100 (0 no damage, 100 complete death), 14 days after application
Summary of the method: as §3

[22] = tested on: upland rice (Oryza sp., var. Tebonnet, RICE); experiment: Pre-emerge test, crop safety; conditions: rating scale 0-100, 14 days after application
Summary of the method: (§4)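 Visual ratings on a 0-100 scale (0 no damage, 100 all plants dead) were taken at 14 days after treatment. Rates of 15-1000 g ai/ha in acetone, 187 l/ha, were sprayed onto soil one day after planting (pre-emerge) or onto 2-3 leaf plants with 0.25% v/v surfactant (post-emerge).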

[23] = tested on: field corn (Zea mays L., var. Dekalb 535, CORN); experiment: Pre-emerge test, crop safety; conditions: rating scale 0-100, 14 days after application
Summary of the method: as §4

## CCCOC(=O)C(C)(Cl)Cc1c(OC)c(Cl)cc(F)c1-n1c(=O)cc(C(F)(F)F)n(C)c1=O (stereo not shown) [14-35]
[1]; 63 g ai/ha
  Pre-emerge herbicidal activity, phytotoxicity rating AMARE: 100
[1]; 250 g ai/ha
  Pre-emerge herbicidal activity, phytotoxicity rating AMARE: 100
[2]; 63 g ai/ha
  Pre-emerge herbicidal activity, phytotoxicity rating CASOB: 0
[2]; 250 g ai/ha
  Pre-emerge herbicidal activity, phytotoxicity rating CASOB: 0
[3]; 63 g ai/ha
  Pre-emerge herbicidal activity, phytotoxicity rating ABUTH: 100
[3]; 250 g ai/ha
  Pre-emerge herbicidal activity, phytotoxicity rating ABUTH: 100
[4]; 63 g ai/ha
  Pre-emerge herbicidal activity, phytotoxicity rating CHEAL: 50
[4]; 250 g ai/ha
  Pre-emerge herbicidal activity, phytotoxicity rating CHEAL: 100
[5]; 63 g ai/ha
  Pre-emerge herbicidal activity, phytotoxicity rating SETVI: 80
[5]; 250 g ai/ha
  Pre-emerge herbicidal activity, phytotoxicity rating SETVI: 100
[6]; 63 g ai/ha
  Pre-emerge herbicidal activity, phytotoxicity rating ECHCG: 0
[6]; 250 g ai/ha
  Pre-emerge herbicidal activity, phytotoxicity rating ECHCG: 99
[7]; 63 g ai/ha
  Pre-emerge herbicidal activity, phytotoxicity rating IPOHE: 0
[7]; 250 g ai/ha
  Pre-emerge herbicidal activity, phytotoxicity rating IPOHE: 0
[8]; 63 g ai/ha
  Pre-emerge herbicidal activity, phytotoxicity rating SORHA: 0
[8]; 250 g ai/ha
  Pre-emerge herbicidal activity, phytotoxicity rating SORHA: 50
[9]; 63 g ai/ha
  Pre-emerge herbicidal activity, phytotoxicity rating DIGSA: 50
[9]; 250 g ai/ha
  Pre-emerge herbicidal activity, phytotoxicity rating DIGSA: 95
[10]; Rate 63 g ai/ha
  Post-emerge Herbicidal Activity, phytotoxicity rating CASOB: 0
[10]; Rate 250 g ai/ha
  Post-emerge Herbicidal Activity, phytotoxicity rating CASOB: 90
[11]; Rate 63 g ai/ha
  Post-emerge Herbicidal Activity, phytotoxicity rating ABUTH: 95
[11]; Rate 250 g ai/ha
  Post-emerge Herbicidal Activity, phytotoxicity rating ABUTH: 100
[12]; Rate 63 g ai/ha
  Post-emerge Herbicidal Activity, phytotoxicity rating CHEAL: 100
[12]; Rate 250 g ai/ha
  Post-emerge Herbicidal Activity, phytotoxicity rating CHEAL: 100
[13]; Rate 63 g ai/ha
  Post-emerge Herbicidal Activity, phytotoxicity rating SETVI: 50
[13]; Rate 250 g ai/ha
  Post-emerge Herbicidal Activity, phytotoxicity rating SETVI: 95
[14]; Rate 63 g ai/ha
  Post-emerge Herbicidal Activity, phytotoxicity rating ECHCG: 100
[14]; Rate 250 g ai/ha
  Post-emerge Herbicidal Activity, phytotoxicity rating ECHCG: 100
[15]; Rate 63 g ai/ha
  Post-emerge Herbicidal Activity, phytotoxicity rating IPOHE: 70
[15]; Rate 250 g ai/ha
  Post-emerge Herbicidal Activity, phytotoxicity rating IPOHE: 100
[16]; Rate 63 g ai/ha
  Post-emerge Herbicidal Activity, phytotoxicity rating AMARE: 100
[16]; Rate 250 g ai/ha
  Post-emerge Herbicidal Activity, phytotoxicity rating AMARE: 100
[17]; Rate 63 g ai/ha
  Post-emerge Herbicidal Activity, phytotoxicity rating SORHA: 30
[17]; Rate 250 g ai/ha
  Post-emerge Herbicidal Activity, phytotoxicity rating SORHA: 70
[18]; Rate 63 g ai/ha
  Post-emerge Herbicidal Activity, phytotoxicity rating AMBEL: 100
[18]; Rate 250 g ai/ha
  Post-emerge Herbicidal Activity, phytotoxicity rating AMBEL: 100
[19]; Rate 63 g ai/ha
  Post-emerge Herbicidal Activity, phytotoxicity rating DIGSA: 50
[19]; Rate 250 g ai/ha
  Post-emerge Herbicidal Activity, phytotoxicity rating DIGSA: 95
[20]; Rate 63 g ai/ha
  Post-emerge phytotoxicity rating RICE (crop damage): 80
[20]; Rate 250 g ai/ha
  Post-emerge phytotoxicity rating RICE (crop damage): 100
[21]; Rate 63 g ai/ha
  Post-emerge phytotoxicity rating CORN (crop damage): 100
[21]; Rate 250 g ai/ha
  Post-emerge phytotoxicity rating CORN (crop damage): 100
[22]; 63 g ai/ha
  Pre-emerge phytotoxicity rating, crop damage RICE: 0
[22]; 250 g ai/ha
  Pre-emerge phytotoxicity rating, crop damage RICE: 10
[23]; 63 g ai/ha
  Pre-emerge phytotoxicity rating, crop damage CORN: 0
[23]; 250 g ai/ha
  Pre-emerge phytotoxicity rating, crop damage CORN: 25
